From ChEMBL document CHEMBL2440106, “Cloning, characterization, and inhibition studies of a β-carbonic anhydrase from Leishmania donovani chagasi, the protozoan parasite responsible for leishmaniasis” (J Med Chem, 2013)
Converted amounts (≈) assume the structure as drawn. The source made the active and inactive calls. The calls are words filed in the database; no cut-off is given here.

Experiments:
Leishmania amazonensis [1] = assay: Antileishmanial activity against promastigote form of Leishmania amazonensis MHOM/BR/76/Ma-5 assessed as parasite growth inhibition at 128 uM after 120 hrs by resazurin dye-based assay relative to control; type: functional; conditions: MHOM/BR/76/Ma-5, 120 h, read-out: GI
Leishmania amazonensis [2] = assay: Antileishmanial activity against promastigote form of Leishmania amazonensis MHOM/BR/76/Ma-5 assessed as parasite growth inhibition at 256 uM after 120 hrs by resazurin dye-based assay relative to control; type: functional; conditions: MHOM/BR/76/Ma-5, 120 h, read-out: GI
Leishmania chagasi [3] = assay: Antileishmanial activity against promastigote form of Leishmania chagasi MHOM/BR/1974/PP75 assessed as parasite growth inhibition at 128 uM after 120 hrs by resazurin dye-based assay relative to control; type: functional; conditions: MHOM/BR/1974/PP75, 120 h, read-out: GI
Leishmania chagasi [4] = assay: Antileishmanial activity against promastigote form of Leishmania chagasi assessed as marked swelling of vacuoles at 256 uM after 24 hrs by transmission electron microscopic analysis; type: functional, organism-based
Leishmania chagasi [5] = assay: Antileishmanial activity against promastigote form of Leishmania chagasi assessed as appearance of many number of vacuoles in cytoplasm at 256 uM after 24 hrs by transmission electron microscopic analysis; type: functional, organism-based
Leishmania amazonensis [6] = assay: Antileishmanial activity against promastigote form of Leishmania amazonensis MHOM/BR/76/Ma-5 assessed as parasite growth inhibition after 120 hrs by resazurin dye-based assay; type: functional; conditions: MHOM/BR/76/Ma-5, 120 h
Leishmania chagasi [7] = assay: Antileishmanial activity against promastigote form of Leishmania chagasi assessed as accumulation of intracytoplasmic electron-dense granules at 256 uM after 24 hrs by transmission electron microscopic analysis; type: functional, organism-based
Leishmania chagasi [8] = assay: Antileishmanial activity against promastigote form of Leishmania chagasi MHOM/BR/1974/PP75 assessed as parasite growth inhibition at 256 uM after 120 hrs by resazurin dye-based assay relative to control; type: functional; conditions: MHOM/BR/1974/PP75, 120 h, read-out: GI
Leishmania chagasi [9] = assay: Antileishmanial activity against promastigote form of Leishmania chagasi assessed as appearance of autophagic vacuoles at 256 uM after 24 hrs by transmission electron microscopic analysis; type: functional, organism-based
Leishmania chagasi [10] = assay: Antileishmanial activity against promastigote form of Leishmania chagasi MHOM/BR/1974/PP75 assessed as parasite growth inhibition after 120 hrs by resazurin dye-based assay; type: functional; conditions: MHOM/BR/1974/PP75, 120 h

SMILES | inhibition of growth at 256 µM (Leishmania amazonensis [2]) | inhibition of growth at 256 µM (Leishmania chagasi [8]) | also measured
O=C(N/N=C\c1cccc(Br)c1)Nc1nnc(S)s1 | 97% | 100% | inhibition of growth at 128 µM (Leishmania amazonensis [1]): 28%; inhibition of growth at 128 µM (Leishmania chagasi [3]): 30%; Activity (Leishmania chagasi [4]): Active; Activity (Leishmania chagasi [5]): Active; MIC (Leishmania amazonensis [6]): 256 µM (≈ 91.7 µg/mL); Activity (Leishmania chagasi [7]): Active; Activity (Leishmania chagasi [9]): Active; MIC (Leishmania chagasi [10]): 256 µM (≈ 91.7 µg/mL)
O=C(N/N=C\c1ccccc1)Nc1nnc(S)s1 | 45.8% | 36.3% | –
O=C(N/N=C\c1ccc(F)cc1)Nc1nnc(S)s1 | 56% | 18% | –
C/C(=N/NC(=O)Nc1nnc(S)s1)c1ccc(Cl)cc1 | 7% | 0% | –
COc1cccc(/C=N\NC(=O)Nc2nnc(S)s2)c1 | 76.4% | 32.2% | –
O=C(N/N=C1\C(=O)Nc2ccccc21)Nc1n[nH]c(=S)s1 | 0% | 0% | –
O=C(N/N=C1\C(=O)Nc2ccc(Br)cc21)Nc1n[nH]c(=S)s1 | 0% | 0% | –
O=C(N/N=C\c1ccc(Cl)cc1)Nc1nnc(S)s1 | 62.3% | 51.5% | –
C/C(CC(C)C)=N/NC(=O)Nc1nnc(S)s1 | 91.9% | 74.8% | –
